Measurements: US20230257354A1, “NOVEL HETEROCYCLIC COMPOUNDS” (Hoffmann-La Roche Inc., priority 2020, published 2023)
Where a name gives a salt, the structure may show the parent alone.

System: Acinetobacter baumannii ATCC17978
Assay: Antimicrobial susceptibility testing, 90% growth inhibitory concentration (IC90) determination, ATCC17978
Assay type: cell-based
Conditions: Iso-Sensitest broth, OD 600 nm over 16 h, 35±2° C., read-out: ATCC 17978 IC90
Protocol: Antimicrobial Susceptibility Testing: 90% Growth Inhibitory Concentration (IC90) Determination The in vitro antimicrobial activity of the compounds was determined according to the following procedure: The assay used a 10-points Iso-Sensitest broth medium to measure quantitatively the in vitro activity of the compounds against Acinetobacter baumannii ATCC17978 or ATCC17961. Stock compounds in DMSO were serially twofold diluted (e.g. range from 50 to 0.097 μM final concentration) in 384 wells microtiter plates and inoculated with 49 μl the bacterial suspension in Iso-Sensitest medium to have a final cell concentration of ˜5×10^(5) CFU/ml in a final volume/well of 50 ul/well. Microtiter plates were incubated at 35±2° C. Bacterial cell growth was determined with the measurement of optical density at X=600 nm each 20 minutes over a time course of 16 h. Growth inhibition was calculated during the logarithmic growth of the bacterial cells with determination of the concentration inhibiting 50% (IC50) and 90% (IC90) of the growth. Table 1 provides the 90% growth inhibitory concentrations (IC90) in micromoles per liter of the compounds of present invention obtained against the strain Acinetobacter baumannii ATCC17978.

Row | SMILES | IC90
1 | COc1ccc(-c2cnc(C(=O)Nc3ccc(C(=O)N[C@H]4C[C@@H](C(=O)NCCN)C4)c(Cl)c3)n2C)c(F)c1F [Example B19, N-[4-[[3-(2-aminoethylcarbamoyl)cyclobutyl]carbamoyl]-3-chloro-phenyl]-5-(2,3-difluoro-4-methoxy-phenyl)-1-methyl-imidazole-2-carboxamide;formic acid] | 160 nM
2 | Cc1cc(NC(=O)c2ncc(-c3ccc(OCC#N)c(F)c3F)n2C)ccc1C(=O)NCCNC(=O)C1CCNCC1 [Example B13, N-[2-[[4-[[5-[4-(cyanomethoxy)-2,3-difluoro-phenyl]-1-methyl-imidazole-2-carbonyl]amino]-2-methyl-benzoyl]amino]ethyl]piperidine-4-carboxamide;formic acid] | 910 nM
3 | Cn1c(-c2ccc(OC(F)F)c(F)c2F)cnc1C(=O)Nc1ccc(C(=O)NCCCN)c(Cl)c1 [Example A19, N-[4-(3-Aminopropylcarbamoyl)-3-chloro-phenyl]-5-[4-(difluoromethoxy)-2,3-difluoro-phenyl]-1-methyl-imidazole-2-carboxamide] | 1400 nM
4 | CCc1cc(NC(=O)c2ncc(-c3ccc(OCC#N)c(F)c3Cl)n2C)ccc1C(=O)NCCOCCN [Example A22, N-[4-[2-(2-aminoethoxy)ethylcarbamoyl]-3-ethyl-phenyl]-5-[2-chloro-4-(cyanomethoxy)-3-fluoro-phenyl]-1-methyl-imidazole-2-carboxamide;hydrochloride] | 180 nM
5 | COc1ccc(-c2cnc(C(=O)Nc3ccc(C(=O)NCC4CC(N)C4)c(Cl)c3)n2C)c(F)c1F (centres unmarked) [Example A8, N-[4-[(3-aminocyclobutyl)methylcarbamoyl]-3-chloro-phenyl]-5-(2,3-difluoro-4-methoxy-phenyl)-1-methyl-imidazole-2-carboxamide;formic acid] | 500 nM
6 | COc1ccc(-c2cnc(C(=O)Nc3ccc(C(=O)NCCNC(=O)N[C@H]4CNC[C@@H]4O)c(C)c3)n2C)c(F)c1F [Example B29, 5-(2,3-difluoro-4-methoxy-phenyl)-N-[4-[2-[[(3S,4S)-4-hydroxypyrrolidin-3-yl]carbamoylamino]ethylcarbamoyl]-3-methyl-phenyl]-1-methyl-imidazole-2-carboxamide;formic acid] | 610 nM
7 | COc1ccc(-c2cnc(C(=O)Nc3ccc(C(=O)N[C@H]4C[C@@H](C(=O)N[C@H]5C[C@@H](N)C5)C4)c(Cl)c3)n2C)c(F)c1F [Example B21, N-[4-[[3-[(3-aminocyclobutyl)carbamoyl]cyclobutyl]carbamoyl]-3-chloro-phenyl]-5-(2,3-difluoro-4-methoxy-phenyl)-1-methyl-imidazole-2-carboxamide;2,2,2-trifluoroacetic acid] | 98 nM
8 | Cn1c(-c2ccc(OCC#N)c(F)c2F)cnc1C(=O)Nc1ccc(C(=O)NCCNC(=O)C2(O)CCNCC2)c(Cl)c1 [Example B16, N-[2-[[2-chloro-4-[[5-[4-(cyanomethoxy)-2,3-difluoro-phenyl]-1-methyl-imidazole-2-carbonyl]amino]benzoyl]amino]ethyl]-4-hydroxy-piperidine-4-carboxamide;2,2,2-trifluoroacetic acid] | 350 nM
9 | COc1ccc(-c2cnc(C(=O)Nc3ccc(C(=O)NCCNC(=O)CN(C)C)c(Cl)c3)n2C)c(F)c1F [Example A24, N-[3-chloro-4-[2-[[2-(dimethylamino)acetyl]amino]ethylcarbamoyl]phenyl]-5-(2,3-difluoro-4-methoxy-phenyl)-1-methyl-imidazole-2-carboxamide;2,2,2-trifluoroacetic acid] | 670 nM
10 | COc1ccc(-c2cnc(C(=O)Nc3ccc(C(=O)NC4CCNCC4)c(Cl)c3)n2C)c(F)c1F [Example A4, N-[3-chloro-4-(4-piperidylcarbamoyl)phenyl]-5-(2,3-difluoro-4-methoxy-phenyl)-1-methyl-imidazole-2-carboxamide;formic acid] | 440 nM
11 | Cn1c(-c2ccc(OCC#N)c(F)c2F)cnc1C(=O)Nc1ccc(C(=O)NCCNC(=O)[C@H]2CCNC[C@@H]2O)c(Cl)c1 [Example B35, (3R,4S)-N-[2-[[2-chloro-4-[[5-[4-(cyanomethoxy)-2,3-difluoro-phenyl]-1-methyl-imidazole-2-carbonyl]amino]benzoyl]amino]ethyl]-3-hydroxy-piperidine-4-carboxamide;formic acid] | 1300 nM
12 | CC[C@]1(O)CN[C@@H](C(=O)NCCNC(=O)c2ccc(NC(=O)c3ncc(-c4ccc(OCC#N)c(F)c4F)n3C)cc2C)C1 [Example B25, 5-[4-(cyanomethoxy)-2,3-difluoro-phenyl]-N-[4-[2-[[(2R,4R)-4-ethyl-4-hydroxy-pyrrolidine-2-carbonyl]amino]ethylcarbamoyl]-3-methyl-phenyl]-1-methyl-imidazole-2-carboxamide;formic acid] | 870 nM
13 | COc1ccc(-c2cnc(C(=O)Nc3ccc(C(=O)N[C@H]4C[C@@H](NC(=O)C5CCNCC5)C4)c(Cl)c3)n2C)c(F)c1F [Example B39, N-[3-[[2-chloro-4-[[5-(2,3-difluoro-4-methoxy-phenyl)-1-methyl-imidazole-2-carbonyl]amino]benzoyl]amino]cyclobutyl]piperidine-4-carboxamide;formic acid] | 57 nM
14 | Cn1c(-c2ccc(OCC#N)c(F)c2F)cnc1C(=O)Nc1ccc(C(=O)NCCCN2CCNCC2)c(Cl)c1 [Example A11, N-[3-chloro-4-(3-piperazin-1-ylpropylcarbamoyl)phenyl]-5-[4-(cyanomethoxy)-2,3-difluoro-phenyl]-1-methyl-imidazole-2-carboxamide;2,2,2-trifluoroacetic acid] | 310 nM
15 | CC(C)CCOCCNC(=O)c1ccc(NC(=O)c2ncc(-c3ccc(OCC#N)c(F)c3F)n2C)cc1Cl [Example A27, N-[3-chloro-4-(2-isopentyloxyethylcarbamoyl)phenyl]-5-[4-(cyanomethoxy)-2,3-difluoro-phenyl]-1-methyl-imidazole-2-carboxamide;formic acid] | 240 nM
16 | CCc1cc(NC(=O)c2ncc(-c3ccc(OC)c(F)c3F)n2C)ccc1C(=O)N[C@H]1C[C@@H](C(=O)NCCN)C1 [Example B22, N-[4-[[3-(2-aminoethylcarbamoyl)cyclobutyl]carbamoyl]-3-ethyl-phenyl]-5-(2,3-difluoro-4-methoxy-phenyl)-1-methyl-imidazole-2-carboxamide;2,2,2-trifluoroacetic acid] | 320 nM
17 | Cc1cc(NC(=O)c2ncc(-c3ccc(OCC#N)c(F)c3F)n2C)ccc1C(=O)NCCNC(=O)N[C@H]1CNC[C@@H]1O [Example B31, 5-[4-(cyanomethoxy)-2,3-difluoro-phenyl]-N-[4-[2-[[(3S,4S)-4-hydroxypyrrolidin-3-yl]carbamoylamino]ethylcarbamoyl]-3-methyl-phenyl]-1-methyl-imidazole-2-carboxamide;formic acid] | 740 nM
18 | COc1ccc(-c2cnc(C(=O)Nc3ccc(C(=O)NC4CCN(C(=O)[C@@H]5C[C@@H](O)CN5)C4)c(Cl)c3)n2C)c(F)c1F (stereo partly drawn) [Example B3, N-[3-chloro-4-[[1-[(2S,4R)-4-hydroxypyrrolidine-2-carbonyl]pyrrolidin-3-yl]carbamoyl]phenyl]-5-(2,3-difluoro-4-methoxy-phenyl)-1-methyl-imidazole-2-carboxamide;formic acid] | 280 nM
19 | CCc1cc(NC(=O)c2ncc(-c3c(F)cc(OC)cc3F)n2C)ccc1C(=O)NCCOCCN [Example A18, N-[4-[2-(2-aminoethoxy)ethylcarbamoyl]-3-ethyl-phenyl]-5-(2,6-difluoro-4-methoxy-phenyl)-1-methyl-imidazole-2-carboxamide;hydrochloride] | 1200 nM
20 | COc1ccc(-c2cnc(C(=O)Nc3ccc(C(=O)N[C@H]4C[C@@H](NC(=O)[C@H]5CCNC[C@H]5O)C4)c(Cl)c3)n2C)c(F)c1F [Example B42, (3S,4S)-N-[3-[[2-chloro-4-[[5-(2,3-difluoro-4-methoxy-phenyl)-1-methyl-imidazole-2-carbonyl]amino]benzoyl]amino]cyclobutyl]-3-hydroxy-piperidine-4-carboxamide;formic acid] | 73 nM
21 | Cn1c(-c2ccc(OC(F)F)c(F)c2F)cnc1C(=O)Nc1ccc(C(=O)NCCCNC(=O)CCN)c(Cl)c1 [Example B11, N-[4-[3-(3-aminopropanoylamino)propylcarbamoyl]-3-chloro-phenyl]-5-[4-(difluoromethoxy)-2,3-difluoro-phenyl]-1-methyl-imidazole-2-carboxamide;2,2,2-trifluoroacetic acid] | 230 nM
22 | COc1ccc(-c2cnc(C(=O)Nc3ccc(C(=O)NCC4CCN(CC5CNC5)CC4)c(Cl)c3)n2C)c(F)c1F [Example C4, N-[4-[[1-(azetidin-3-ylmethyl)-4-piperidyl]methylcarbamoyl]-3-chloro-phenyl]-5-(2,3-difluoro-4-methoxy-phenyl)-1-methyl-imidazole-2-carboxamide;2,2,2-trifluoroacetic acid] | 750 nM
23 | COc1ccc(-c2cnc(C(=O)Nc3ccc(C(=O)NCC4CC(CN)C4)c(Cl)c3)n2C)c(F)c1F (centres unmarked) [Example A7, N-[4-[[3-(aminomethyl)cyclobutyl]methylcarbamoyl]-3-chloro-phenyl]-5-(2,3-difluoro-4-methoxy-phenyl)-1-methyl-imidazole-2-carboxamide;formic acid] | 240 nM
